Laboratory results published in a melting point compilation (Tetko et al.; mined from patent text by program, amines drawn as free bases though some values may be those of a salt).

Row | Compound | melting point
1 | COc1ccccc1CN1CCC(=O)C(C2c3ccccc3Oc3ccccc32)C1 (stereo unspecified) | 96 to 97 °C
2 | COc1cc(C(Cl)(Cl)Cl)cc(OC)n1 | 71 to 73 °C
3 | CCC(C)(C)c1ccc(OCCCC(=O)Nc2ccc(Cl)c(NC(=O)C(C(=O)c3ccc(OC)cc3)N3C(=O)NC(=C(C)C)C3=O)c2)c(C(C)(C)CC)c1 (stereo unspecified) | 140 to 141 °C
4 | COc1ccc(C(=O)Nc2ccc(C(=O)N3CCOCC3)cc2)cc1C12CC3CC(CC(C3)C1)C2 | 238 to 241 °C
5 | CS(=O)(=O)c1ccc(C(CC2CCCC2)C(=O)O)cc1Cl (stereo unspecified) | 124 to 126 °C
6 | CC(=O)OCCCc1cccc(-c2nc(=O)c3ccccc3s2)n1 | 141 to 142 °C
7 | O=C1NCCc2ccc(OCCCCN3CCN(c4cccc5ccccc45)CC3)nc2N1 | 188 to 190 °C
8 | CCCCOc1cc2c(cc1C(=O)NC)CC(N(CCC)CCC)C2 (stereo unspecified) | 129 to 130 °C
9 | Cc1c(NC(=O)OCCCl)cc([N+](=O)[O-])c(N)c1C | 151 °C
10 | O=C(O)C(=O)N1CCC(Cc2ccccc2)CC1 | 109 to 112 °C
11 | O=C(NCCCc1ccncc1)N(CCC12CC3CC(CC(C3)C1)C2)Cc1cccs1 | 142 to 144 °C
12 | CS(=O)(=O)c1ccc(-c2nc(C(F)(F)F)nc(NN)c2-c2ccccc2)cc1 | 272 to 275 °C
13 | Cc1c(CCCl)c(=O)oc2cc(O)cc(O)c12 | 218 to 220 °C
14 | O=C(CCCCCCCCC(=O)N(CCO)CCO)N(CCO)CCO | 87 to 98 °C
15 | FC(F)(F)c1cc(-c2ccc(Cl)cc2)nc2c(I)cnn12 | 155 °C
16 | N#Cc1cnc2cc(C=O)sc2c1Cl | 188 to 189 °C
17 | C=C1CCc2c(F)c(F)cc3c(=O)c(C(=O)OCC)cn1c23 | 272 to 274 °C
18 | CCCCOC(=O)c1cc([N+](=O)[O-])c(Cl)c(S(N)(=O)=O)c1 | 140 to 141 °C
19 | CCCc1ccc(OCCC(C)C)cc1O | 40 to 40.5 °C
20 | Cn1ccnc1SCC(O)(Cn1cncn1)c1ccc(Cl)cc1Cl (stereo unspecified) | 159 to 161 °C

Row | Compound | melting point
21 | Oc1ccc(-c2nc(-c3ccc(F)cc3)c(-c3ccncc3)[nH]2)cc1 | 214 to 215 °C
22 | CCCCCCCCCCCCCCCCCCc1cc(OC(=O)CC)ccc1O | 75 to 78 °C
23 | c1cncc(-n2cnnn2)c1 | 74 to 76 °C
24 | Cc1c(NC(=O)c2ccc(-c3ccccc3F)c(F)c2)ccc2cc(CN3CCCC3)cnc12 | 139 to 140 °C
25 | O=NN1CCN(Cc2c[nH]c3ccccc23)CC1 | 116 to 118 °C
26 | NCCCN1CCC(c2c[nH]c3cc(F)ccc23)CC1 | 102 °C
27 | COc1ccc2[nH]cc(C3=CCN(C(=O)NCC4CCC(c5ccccc5)(N(C)C)CC4)CC3)c2c1 (stereo unspecified) | 98 to 104 °C
28 | CNC(=O)[C@@H]1CCN1S(=O)(=O)c1ccc(Cl)c(COc2cccc3c(-n4ccnc4)cc(C)nc23)c1Cl | 118 °C
29 | CC(C)CN1C(=O)[C@@H](CCCl)O[C@H](c2ccccc2Cl)c2cc(Cl)ccc21 (relative stereo) | 138 to 140 °C
30 | COC(=O)COCc1cc(C(C)(C)C)c(O)c(C(C)(C)C)c1 | 132 to 133 °C
31 | CC(=O)N1N=C(c2ccncc2)OC1(C)c1ccccc1 (stereo unspecified) | 79 to 81 °C
32 | CC(=O)COc1ccc(O)cc1 | 110 to 112 °C
33 | O=C1C=CC2=C(C1)Cc1ccccc1OCO2 | 93 to 95 °C
34 | O=C(NCCN1CCCC1)Nc1ccc(-c2cnc(COCc3cc4ccccc4o3)o2)cc1 | 124 to 126 °C
35 | CCSC(=N)Nc1ccc2[nH]cc(C3=CCN(C)CC3)c2c1 | 77 to 79 °C
36 | CCN1CCc2cc(OC)c(OC)cc2C1C1CC(C(=O)N2CCN(c3ccccn3)CC2)CCC12c1cc(OC)c(OC)cc1CCN2CC (stereo unspecified) | 115 to 117 °C
37 | CCCCCCC(C)(C)c1cc(O)c2c(c1)OC(C)(C)[C@@H]1CC=C(NC(C)=O)C[C@@H]21 (relative stereo) | 186 to 188 °C
38 | CC1CC(=O)c2c(OS(=O)(=O)c3cccs3)ccc(-c3nccs3)c2C1 (stereo unspecified) | 111 to 113 °C
39 | Cn1c(=O)c(-c2ccc(Cl)cc2Cl)cc2c3cc(C=NO)ccc3n(C)c21 | 287 to 290 °C
40 | O=C(O)CCCCCCCn1c(-c2ccccc2)nc(-c2ccccc2Cl)c1-c1ccccc1Cl | 198 °C

Continued, values first:

Row | melting point | Compound
41 | 190 to 210 °C | Clc1ccc(-c2cc3ncnc(Nc4ccc5[nH]ccc5c4)c3s2)cc1
42 | 109 to 110 °C | O=[N+]([O-])c1ccccc1-c1ccc(CBr)cc1
43 | 265 to 266 °C | Cn1c(C(F)(F)F)cc(=O)n(-c2ccc3snc(OCC#N)c3c2)c1=O
44 | 218 to 221 °C | COc1cn(-c2cccc(-c3cnn(C)c3)c2F)nc(-c2ccnn2-c2ccccc2)c1=O
45 | 167 to 169 °C | CCOC(=O)CCCOc1ccc(S(=O)(=O)n2c(=O)[nH]c3cc(Cl)ccc3c2=O)cc1
46 | 110 to 112 °C | Cc1cc(O)c(F)cc1[N+](=O)[O-]
47 | 98 to 99 °C | O=C(O)C(OCc1ccc(Cl)cc1)(C(F)(F)F)C(F)(F)F
48 | 170 to 171 °C | CC(C)(CNC(=O)c1cc2cccc(NS(=O)(=O)c3cccs3)c2[nH]1)SCc1ccccc1
49 | 107 to 109 °C | CC(=O)c1cn(S(=O)(=O)c2ccccc2)c2nccc(OC3CCCCC3)c12
50 | 173 to 176 °C | COc1ccc(C(F)(F)F)cc1N1CCN(CCCNC(=O)c2cccc3c(=O)c(C)c(-c4ccccc4)oc23)CC1
51 | 138 to 139 °C | CCCCCCCN(CCC(C)(C)CCSc1nc(-c2ccccc2)c(-c2ccccc2)[nH]1)C(=O)Nc1ccc(F)cc1F
52 | 270 to 272 °C | Cc1cc(-c2ccc(C(F)(F)F)cc2)nc2c(C(=O)Nc3cccc(S(N)(=O)=O)c3)cnn12
53 | 154 to 156 °C | COCc1nc2c(OC)ccc(CCc3ccncc3)c2[nH]1
54 | 238 to 240 °C | CN1CCN(c2n[nH]c(-c3ccc(F)cc3)c2-c2ccncc2)CC1
55 | 205 to 206 °C | O=c1[nH]nc(Cl)cc1Br
56 | 183 to 184 °C | O=C1c2c(-c3ccccc3)cc(CCl)nc2OCCN1Cc1cc(C(F)(F)F)cc(C(F)(F)F)c1
57 | 136 °C | CCOC(=O)N1CCc2nc3c(C(F)(F)F)cccc3c(C)c2CC1
58 | 191 to 192 °C | Nc1ccc(C(F)(F)F)cc1C(=O)O
59 | 212 to 215 °C | Fc1cc(F)c2c(c1)CCC2n1cc[nH]c1=S (stereo unspecified)

Row | melting point | Compound
60 | 140 to 142 °C | CC(C)c1c(C(=O)Nc2ccccc2)c(-c2ccccc2)c(-c2ccc(F)cc2)n1CC[C@@H]1C[C@H](CC(=O)OC(C)(C)C)OC(C)(C)O1
61 | 153 to 155 °C | COc1ccc(S(=O)(=O)C(c2cc(F)ccc2F)c2cc(N)ncc2Cl)cc1 (stereo unspecified)
62 | 191 to 192 °C | N#CCc1ccc(Nc2nc(OCC3CCCCC3)c3[nH]cnc3n2)cc1
63 | 121 to 124 °C | COc1ccccc1-n1ccc(=N)cc1
64 | 70 to 72 °C | COc1cc(C)c(N)c(C)c1C
65 | 152 to 155 °C | Cc1c(NC(=O)NCCO)c(C)c2c(c1-c1ccccc1)OCC2c1ccc(C(C)C)cc1 (stereo unspecified)
66 | 108 to 110 °C | CCN(CC)C(=O)c1cc2ccccc2[nH]1
67 | 104 to 105 °C | COc1ccc(-c2ccc(C3=NOC(CNC(C)=O)C3)cc2)ccc1=O (stereo unspecified)
68 | 148 to 150 °C | O=C1CCN(Cc2ccccc2)C(=O)C1=C1SCCS1
69 | 215 to 216 °C | CC(=O)CCNc1cc(C(=O)O)cc(S(N)(=O)=O)c1Oc1ccccc1
70 | 157 to 158 °C | CC(=O)N1CCC(CCC(=O)c2ccc3c(c2)CCN3c2ccncc2)CC1
71 | 229 to 230 °C | O=[N+]([O-])c1cn2c(n1)O[C@@H](COc1ccc(N3CCN(Cc4ccc(Oc5ccc(C(F)(F)F)cn5)cc4)CC3)cc1)CC2
72 | 84 to 86 °C | O=C(CCN1CCN(c2ccc3c(c2)OCO3)CC1)c1csc2ccc(F)cc12
73 | 107 °C | O=C(O)C(=NO)C(c1ccc(OCc2ccc3cc(F)ccc3n2)cc1)c1ccc(OCc2ccc3cc(F)ccc3n2)cc1
74 | 130 to 131 °C | CCOC(=O)c1cn(Cc2ccccc2)nc1NC(=O)NC(C)(C)C
75 | 198 to 200 °C | CCNC(=O)N[C@H]1CC[C@H](CCN2CCN(c3cccc4c3CCC4)CC2)CC1
76 | 208 °C | CCCN(CCC)S(=O)(=O)c1cc(OC)c(OC)cc1C=Cc1nc2c(c(=O)n(CCC)c(=O)n2CCC)n1C
77 | 207 to 208 °C | O=C1CN(Cc2ccccc2)C(=O)[C@@H](Cc2c[nH]c3ccccc23)N1
78 | 185 °C | OC1CSC(Oc2cc(-c3ccc(F)nc3)ccc2Cl)C(O)C1O (stereo unspecified)

Row | melting point | Compound
79 | 188 °C | CCNc1nc(SC)ncc1C(=O)O
80 | 170 to 172 °C | COc1ccc(-n2c3ccccc3c3cc(C(C#N)=C(C#N)c4cc(C(F)(F)F)cc(C(F)(F)F)c4)ccc32)cc1
81 | 217 °C | CC1(C)Cc2c(c(N3CCCC3)nc3sc4c(NCCCN5CCCC5=O)ncnc4c23)CO1
82 | 54.5 to 56 °C | C=C(C)C(C(=O)OC(C)(C)C)C1(CC(C)C)CCN(CCc2ccccc2)C1=O (stereo unspecified)
83 | 110 to 114 °C | COc1ccc(C(=O)C(C)NC(=O)C(F)(F)F)cc1 (stereo unspecified)
84 | 256 to 259 °C | CC(C)(C(=O)O)n1c(=O)[nH]c2ccc(Cl)cc2c1=O
85 | 157 to 158 °C | CC(C)(C)c1nn(-c2c(F)cc(Cl)c3nc(Cl)sc23)c(=O)o1
86 | 57 to 58 °C | Cc1ccccc1-c1cccc(F)c1C#N
87 | 49 to 51 °C | CC(=O)N1CCC(CCc2ccc(N(C)C)cc2)CC1
88 | 59 to 62 °C | NCCCN1CCC(c2noc3cc(F)ccc23)CC1
89 | 46 to 48 °C | COc1ccc(C(=O)[C@H](C)NC(=O)OCc2ccccc2)cc1
90 | 78 to 80 °C | Nc1nc2c(s1)CCN(CC=Cc1cccc(OCc3ccccc3)c1)CC2
91 | 203 °C | CC(=O)Nc1ccc(C)cc1Oc1c(NCc2ccccc2)cc(C(=O)O)cc1S(N)(=O)=O
92 | 205 to 206 °C | NC(=O)c1c(Cl)c(-c2cccnc2)n2c1CN(S(=O)(=O)c1ccc(C(F)(F)F)cc1)CC2
93 | 138 to 141 °C | COc1cc(N)c(Cl)cc1C(=O)NCC1CCN(CCCCCC(=O)c2ccccc2)CC1
94 | 192 to 194 °C | Oc1ccc(N2CCN(CC[C@H]3CC[C@H](Nc4ncccn4)CC3)CC2)cc1
95 | 85 to 86 °C | CCCCCCCCCCCCCCCCCCNC(=O)O[C@H]1CCCO[C@H]1CO (relative stereo)
96 | 134 to 135 °C | Cc1c(-c2ccccc2)oc2c(C(=O)CBr)cccc2c1=O
